Entries after “also recorded” stand apart in the source; their conditions may differ.
What was measured:
[1] = system: Human breast cancer cell line KPL-1; assay: Tumor growth suppression by B. longum Re-105A/pBifiCD, 5-FC and maltose or lactulose, KPL-1 tumor-bearing nude mice; assay type: in vivo, nude mouse
[2] = system: Human breast cancer cell line KPL-1; details: 10% maltose ip versus saline
[3] = system: Human stomach cancer cell line MKN45; assay: Tumor growth suppression by B. longum Re-105A/pBifiCD, 5-FC and maltose, MKN45 tumor-bearing nude rats; assay type: in vivo, nude rat; details: maltose 200 mg/body/day ip with bacteria and 5-FC

OC[C@H]1O[C@@H](O[C@@H]2[C@@H](CO)OC(O)(CO)[C@H]2O)[C@H](O)[C@@H](O)[C@H]1O (mixture of isomers) [lactulose]
Mice died during test ([1]; Group C: bacteria, 5-FC, 20% (w/v) lactulose 1 mL ip once a day, deaths Day 13 and Day 19): two mice had died during the administration period
Effect of lactulose, conclusion of the test ([1]; lactulose 200 mg/day ip with bacteria and 5-FC): can enhance the antitumor effect of B. longum Re-105A/pBifiCD

OC[C@H]1O[C@H](O[C@H]2[C@H](O)[C@@H](O)[C@H](O)O[C@@H]2CO)[C@H](O)[C@@H](O)[C@@H]1O [Maltose]
Effect of maltose on colonization and proliferation in tumor tissue [2]: effect in promoting specific colonization of B. longum Re-105A/pBifiCD in tumor tissue; also recorded: effect in promoting the proliferation and an effect of maintaining the proliferation of B. longum Re-105A/pBifiCD in tumor tissue
Effect of maltose, conclusion of the test [3]: effect in promoting specific colonization of B. longum Re-105A/pBifiCD in tumor tissue, and an effect in promoting proliferation and an effect in maintaining proliferation in tumor tissue

From US8470311B2, “Therapeutic agent for anaerobic diseases” (priority 2008, dated 2013)
